From ChEMBL document CHEMBL5665443, “Enzyme Inhibitor Single Concentration assay results for EUbOPEN Chemogenomics Library” (2024)

Experiments:
[1] = biological target: Methyl-CpG-binding domain protein 4 (Homo sapiens) (UniProt O95243); conditions: Compound Concentration 10.0 uM, Hit No;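 note: MBD4 activity read as fluorescence at 594 nm from cleavage and release of a quenched duplex DNA oligonucleotide, with APE1 coupled to incise the strand and raise turnover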
Description: Inhibition of MBD4 by quantifying inhibition of MBD4-mediated cleavage and dissociation of quenched duplex DNA oligonucleotides, measured as fluorescence at 594 nm. To generate a functional strand incision and increase turn-over this assay is coupled to APE1.

[2] = biological target: DNA-3-methyladenine glycosylase (Homo sapiens) (UniProt P29372); conditions: Compound Concentration 10.0 uM;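 note: enzyme assay where MPG cuts a quenched duplex DNA oligonucleotide probe, paired with APE1 for strand incision and turnover, read as fluorescence at 594 nm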
Sequence of DNA-3-methyladenine glycosylase (Homo sapiens) (P29372 whole entry): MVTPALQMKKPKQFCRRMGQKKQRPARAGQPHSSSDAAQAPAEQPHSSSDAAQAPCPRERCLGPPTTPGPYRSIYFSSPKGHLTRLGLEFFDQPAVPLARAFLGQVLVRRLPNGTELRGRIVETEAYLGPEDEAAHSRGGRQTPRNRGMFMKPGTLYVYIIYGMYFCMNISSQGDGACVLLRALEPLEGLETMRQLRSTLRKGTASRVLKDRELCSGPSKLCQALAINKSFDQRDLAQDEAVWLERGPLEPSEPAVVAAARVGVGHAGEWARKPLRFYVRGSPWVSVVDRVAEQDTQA
Description: Inhibition of MPG by quantifying inhibition of MPG-mediated cleavage and dissociation of quenched duplex DNA oligonucleotides, measured as fluorescence at 594 nm. To generate a functional strand incision and increase turn-over this assay is coupled to APE1.

[3] = biological target: T1, Adenine DNA glycosylase (Homo sapiens) (UniProt Q9UIF7); conditions: Compound Concentration 10.0 uM, Hit No;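 note: human MUTYH activity read as 594 nm fluorescence from cleavage and release of a quenched DNA duplex, coupled with APE1 for strand incision, lower signal meaning inhibition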
T1 sequence (whole entry): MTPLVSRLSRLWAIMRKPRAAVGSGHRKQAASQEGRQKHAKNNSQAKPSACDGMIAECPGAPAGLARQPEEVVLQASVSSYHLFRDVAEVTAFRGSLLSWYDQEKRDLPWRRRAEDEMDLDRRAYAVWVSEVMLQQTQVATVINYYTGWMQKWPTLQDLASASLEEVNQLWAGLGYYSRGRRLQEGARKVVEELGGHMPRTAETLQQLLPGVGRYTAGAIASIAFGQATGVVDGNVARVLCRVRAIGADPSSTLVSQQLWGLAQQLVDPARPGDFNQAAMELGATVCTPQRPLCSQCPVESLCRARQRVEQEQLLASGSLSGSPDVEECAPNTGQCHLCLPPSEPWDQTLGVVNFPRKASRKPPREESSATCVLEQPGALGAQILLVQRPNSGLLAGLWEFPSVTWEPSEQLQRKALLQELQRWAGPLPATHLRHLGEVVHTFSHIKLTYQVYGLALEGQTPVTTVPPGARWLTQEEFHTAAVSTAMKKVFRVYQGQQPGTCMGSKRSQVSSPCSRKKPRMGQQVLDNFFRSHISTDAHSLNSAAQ
Description: Inhibition of MUTYH by quantifying inhibition of MUTYH-mediated cleavage and dissociation of quenched duplex DNA oligonucleotides, measured as fluorescence at 594 nm. To generate a functional strand incision and increase turn-over this assay is coupled to APE1.

[4] = biological target: Endonuclease 8-like 1 (Homo sapiens) (UniProt Q96FI4); conditions: Compound Concentration 10.0 uM;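 note: fluorescence at 594 nm from quenched duplex DNA oligonucleotides released by NEIL1 cleavage and strand separation, reported as reduction of this enzyme activity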
Sequence of Endonuclease 8-like 1 (Homo sapiens) (Q96FI4 whole entry): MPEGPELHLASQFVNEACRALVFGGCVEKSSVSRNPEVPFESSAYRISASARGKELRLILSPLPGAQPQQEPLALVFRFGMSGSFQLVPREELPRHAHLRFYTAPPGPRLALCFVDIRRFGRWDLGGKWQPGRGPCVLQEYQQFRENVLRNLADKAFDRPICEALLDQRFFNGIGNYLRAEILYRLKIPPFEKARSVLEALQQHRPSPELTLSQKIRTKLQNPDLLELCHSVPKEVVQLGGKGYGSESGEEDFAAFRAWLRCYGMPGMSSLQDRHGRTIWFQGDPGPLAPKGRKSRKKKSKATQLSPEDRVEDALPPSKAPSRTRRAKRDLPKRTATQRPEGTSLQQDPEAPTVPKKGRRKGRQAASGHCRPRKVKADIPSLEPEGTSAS
Description: Inhibition of NEIL1 by quantifying inhibition of NEIL1-mediated cleavage and dissociation of quenched duplex DNA oligonucleotides, measured as fluorescence at 594 nm.

[5] = biological target: T2, Endonuclease 8-like 2 (Homo sapiens) (UniProt Q969S2); conditions: Compound Concentration 10.0 uM;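 note: fluorescence at 594 nm reports NEIL2 cutting and release of a quenched double-stranded DNA oligo substrate, reduced signal read as inhibition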
T2 sequence (whole entry): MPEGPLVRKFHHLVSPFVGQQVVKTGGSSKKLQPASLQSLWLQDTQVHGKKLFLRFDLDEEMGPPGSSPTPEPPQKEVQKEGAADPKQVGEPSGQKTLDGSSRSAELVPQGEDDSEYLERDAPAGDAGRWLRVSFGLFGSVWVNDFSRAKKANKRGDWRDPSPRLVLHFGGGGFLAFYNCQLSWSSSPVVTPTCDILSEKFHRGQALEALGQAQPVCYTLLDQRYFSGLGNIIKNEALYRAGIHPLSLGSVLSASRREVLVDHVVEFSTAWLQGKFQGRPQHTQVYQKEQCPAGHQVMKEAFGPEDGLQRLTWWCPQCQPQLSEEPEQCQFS
Description: Inhibition of NEIL2 by quantifying inhibition of NEIL2-mediated cleavage and dissociation of quenched duplex DNA oligonucleotides, measured as fluorescence at 594 nm.

[6] = biological target: T3, Endonuclease III-like protein 1 (Homo sapiens) (UniProt P78549); conditions: Compound Concentration 10.0 uM;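 note: enzyme assay tracking NTHL1 cutting and release of a quenched double-stranded DNA oligo substrate, read as fluorescence at 594 nm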
T3 sequence (whole entry): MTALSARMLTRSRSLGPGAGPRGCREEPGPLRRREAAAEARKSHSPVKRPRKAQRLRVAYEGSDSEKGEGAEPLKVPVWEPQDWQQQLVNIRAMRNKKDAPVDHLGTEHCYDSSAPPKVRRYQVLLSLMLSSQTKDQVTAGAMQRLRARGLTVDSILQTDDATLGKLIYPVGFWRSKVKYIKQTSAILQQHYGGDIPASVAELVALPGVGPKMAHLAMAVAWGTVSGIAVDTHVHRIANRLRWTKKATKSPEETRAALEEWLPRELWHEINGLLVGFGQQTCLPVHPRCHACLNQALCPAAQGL
Description: Inhibition of NTHL1 by quantifying inhibition of NTHL1-mediated cleavage and dissociation of quenched duplex DNA oligonucleotides, measured as fluorescence at 594 nm.

[7] = biological target: N-glycosylase/DNA lyase (Homo sapiens) (UniProt O15527); conditions: Compound Concentration 10.0 uM;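 note: OGG1 cleavage of a quenched duplex DNA oligonucleotide, coupled to APE1 for strand incision, read as fluorescence at 594 nm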
Sequence of N-glycosylase/DNA lyase (Homo sapiens) (O15527 whole entry): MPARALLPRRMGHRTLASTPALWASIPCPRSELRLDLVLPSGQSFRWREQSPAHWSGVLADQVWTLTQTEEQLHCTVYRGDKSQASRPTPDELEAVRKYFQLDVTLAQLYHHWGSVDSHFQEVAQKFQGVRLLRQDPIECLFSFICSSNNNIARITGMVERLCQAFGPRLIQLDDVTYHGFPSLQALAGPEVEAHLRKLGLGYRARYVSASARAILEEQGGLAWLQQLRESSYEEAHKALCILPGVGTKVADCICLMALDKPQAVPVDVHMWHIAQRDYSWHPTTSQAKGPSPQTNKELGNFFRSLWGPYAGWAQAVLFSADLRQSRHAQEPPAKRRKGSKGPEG
Description: Inhibition of OGG1 by quantifying inhibition of OGG1-mediated cleavage and dissociation of quenched duplex DNA oligonucleotides, measured as fluorescence at 594 nm. To generate a functional strand incision and increase turn-over this assay is coupled to APE1.

[8] = biological target: T4, Single-strand selective monofunctional uracil DNA glycosylase (Homo sapiens) (UniProt Q53HV7); conditions: Compound Concentration 10.0 uM;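 note: enzymatic SMUG1 assay coupled with APE1, reading fluorescence at 594 nm released when a quenched double-stranded DNA oligonucleotide substrate is cleaved and separated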
T4 sequence (whole entry): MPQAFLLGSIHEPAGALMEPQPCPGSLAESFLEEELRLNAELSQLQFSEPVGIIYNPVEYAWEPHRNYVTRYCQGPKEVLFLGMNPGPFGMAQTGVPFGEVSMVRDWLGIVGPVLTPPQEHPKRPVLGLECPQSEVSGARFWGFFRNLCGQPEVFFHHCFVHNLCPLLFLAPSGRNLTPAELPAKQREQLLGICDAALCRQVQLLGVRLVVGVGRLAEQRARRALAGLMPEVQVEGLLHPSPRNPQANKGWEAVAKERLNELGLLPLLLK
Description: Inhibition of SMUG1 by quantifying inhibition of SMUG1-mediated cleavage and dissociation of quenched duplex DNA oligonucleotides, measured as fluorescence at 594 nm. To generate a functional strand incision and increase turn-over this assay is coupled to APE1.

[9] = biological target: G/T mismatch-specific thymine DNA glycosylase (Homo sapiens) (UniProt Q13569); conditions: Compound Concentration 10.0 uM;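 note: human TDG cleavage of quenched duplex DNA oligonucleotides coupled to APE1, strand release read as fluorescence at 594 nm, inhibition of TDG activity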
Sequence of G/T mismatch-specific thymine DNA glycosylase (Homo sapiens) (Q13569 whole entry): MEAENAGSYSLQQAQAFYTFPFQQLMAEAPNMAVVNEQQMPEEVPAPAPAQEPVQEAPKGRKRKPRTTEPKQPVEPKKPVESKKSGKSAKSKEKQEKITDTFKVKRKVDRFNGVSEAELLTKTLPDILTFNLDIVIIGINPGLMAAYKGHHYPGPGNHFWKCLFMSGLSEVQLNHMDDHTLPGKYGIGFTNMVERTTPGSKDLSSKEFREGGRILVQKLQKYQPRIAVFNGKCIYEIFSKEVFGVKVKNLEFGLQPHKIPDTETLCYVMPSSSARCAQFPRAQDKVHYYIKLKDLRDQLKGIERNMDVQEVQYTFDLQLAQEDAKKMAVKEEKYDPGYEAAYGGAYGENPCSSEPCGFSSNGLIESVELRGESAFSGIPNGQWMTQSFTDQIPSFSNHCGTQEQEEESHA
Description: Inhibition of TDG by quantifying inhibition of TDG-mediated cleavage and dissociation of quenched duplex DNA oligonucleotides, measured as fluorescence at 594 nm. To generate a functional strand incision and increase turn-over this assay is coupled to APE1.

[10] = biological target: Uracil-DNA glycosylase (Homo sapiens) (UniProt P13051); conditions: Compound Concentration 10.0 uM, Hit No;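 note: UNG excision on a quenched double-stranded DNA oligo probe, with APE1 added for strand incision and turnover, read as fluorescence at 594 nm as strands separate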
Sequence of Uracil-DNA glycosylase (Homo sapiens) (P13051 whole entry): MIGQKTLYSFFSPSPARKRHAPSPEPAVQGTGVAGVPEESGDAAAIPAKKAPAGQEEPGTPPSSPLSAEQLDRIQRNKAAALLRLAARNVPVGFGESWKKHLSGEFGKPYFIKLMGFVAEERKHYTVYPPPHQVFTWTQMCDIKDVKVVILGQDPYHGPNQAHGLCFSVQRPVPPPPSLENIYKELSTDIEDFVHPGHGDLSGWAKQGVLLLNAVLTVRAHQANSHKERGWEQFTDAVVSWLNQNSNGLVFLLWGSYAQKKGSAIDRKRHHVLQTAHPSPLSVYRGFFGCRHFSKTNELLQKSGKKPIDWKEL
Description: Inhibition of UNG by quantifying inhibition of UNG-mediated cleavage and dissociation of quenched duplex DNA oligonucleotides, measured as fluorescence at 594 nm. To generate a functional strand incision and increase turn-over this assay is coupled to APE1.

Sequence of Methyl-CpG-binding domain protein 4 (Homo sapiens) (O95243 whole entry, the tested form may be a part): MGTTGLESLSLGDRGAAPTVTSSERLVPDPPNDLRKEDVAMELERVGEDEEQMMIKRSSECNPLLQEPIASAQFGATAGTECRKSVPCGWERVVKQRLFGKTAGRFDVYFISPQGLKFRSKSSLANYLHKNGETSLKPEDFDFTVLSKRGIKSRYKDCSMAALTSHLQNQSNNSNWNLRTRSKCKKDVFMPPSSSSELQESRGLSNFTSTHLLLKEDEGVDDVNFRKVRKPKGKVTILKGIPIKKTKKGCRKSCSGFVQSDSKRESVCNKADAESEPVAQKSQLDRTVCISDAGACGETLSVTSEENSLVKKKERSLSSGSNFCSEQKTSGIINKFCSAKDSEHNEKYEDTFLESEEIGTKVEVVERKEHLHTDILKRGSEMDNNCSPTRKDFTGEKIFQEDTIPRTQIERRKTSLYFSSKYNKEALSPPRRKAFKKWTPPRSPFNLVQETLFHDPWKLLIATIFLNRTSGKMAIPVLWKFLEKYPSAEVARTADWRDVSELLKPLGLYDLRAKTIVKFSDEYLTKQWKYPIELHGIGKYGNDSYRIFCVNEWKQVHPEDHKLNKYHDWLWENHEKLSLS

SMILES	inhibition [1] [%]	inhibition ([2]; Hit No) [%]	inhibition [3] [%]	inhibition ([4]; Hit No) [%]	inhibition ([5]; Hit No) [%]	inhibition ([6]; Hit No) [%]	inhibition ([7]; Hit No) [%]	inhibition ([8]; Hit No) [%]	inhibition ([9]; Hit No) [%]	inhibition [10] [%]	inhibition ([2]; Hit Yes) [%]	inhibition ([4]; Hit Yes) [%]	inhibition ([5]; Hit Yes) [%]	inhibition ([6]; Hit Yes) [%]	inhibition ([7]; Hit Yes) [%]	inhibition ([8]; Hit Yes) [%]	inhibition ([9]; Hit Yes) [%]
COc1ccccc1N1CCN(C[C@@H](C(=O)NC(C)(C)C)c2ccccc2)CC1	17.7	15.3	-2.23	15.4	-2.13	17.1	-6.28	7.78	24.3	-2.81	–	–	–	–	–	–	–
CCC(C)(C)/N=C(\NC#N)Nc1cccnc1	4.69	6.03	4.93	1.64	-1.62	21.2	-5.35	-2.33	5.61	-3.3	–	–	–	–	–	–	–
Cc1ccnc(Nc2nc(-c3ccccn3)cs2)c1	9.11	16	13.9	-0.88	9.84	17.1	-1.19	5.18	17.8	-7.33	–	–	–	–	–	–	–
CN1CCN(c2ccc(Nc3c4ccccc4nc4ccccc34)cc2)CC1	88.7	–	113	–	–	–	–	–	–	12.9	90.3	65.5	90.9	84.8	84.8	78.7	73
CCCC(=O)N[C@@H](Cc1ccc(O)cc1)C(=O)NCCCCCCCNCCCCN	20.4	2.86	-4.41	4.46	-1.62	-3.56	-0.213	-0.749	12.1	-4.14	–	–	–	–	–	–	–
CCc1nc2c(o1)CC(c1ccc(C)cc1C)CC2=O (stereo not given)	17.2	23.6	-1.84	6.08	6.53	-4.39	-9.46	5.18	16.4	0.136	–	–	–	–	–	–	–
COc1ccc(OC)c(-c2ccc(NC(=O)c3ccncc3F)cc2)c1	23.8	28	-1.87	3.57	-1.37	-0.258	1.6	24.3	15.8	2.08	–	–	–	–	–	–	–
O=C(Nc1ccc(S(=O)(=O)Nc2nccs2)cc1)C(c1ccccc1)c1ccccc1	66	34	80.2	-2.51	-1.11	17.9	-6.39	7.67	52.5	3.78	–	–	–	–	–	–	–
Cc1cc(C)cc(C(=O)N(C)[C@H](Cc2ccc(-c3ccccc3)cc2)C(=O)N[C@@H](Cc2c[nH]c3ccccc23)C(=O)O)c1	60.3	4.38	76.9	-1.83	12.5	2.66	16.2	4.62	48.4	6.08	–	–	–	–	–	–	–
O=c1cccc2n1C[C@@H]1CNC[C@H]2C1	10.5	-3.1	43.9	-1.18	-3.15	-4.39	-5.41	-3.8	-5.51	-3.14	–	–	–	–	–	–	–
CNC1(C)C2CCC(C2)C1(C)C (stereo not given)	-0.892	6.27	-4.75	-4.14	-4.94	-2.73	-5.59	1.51	10.2	-5.36	–	–	–	–	–	–	–
